Test results as given in patent publication US20080019926A1, “Lung Surfactant Supplements” (priority 2004, published 2008).
Entries after “also recorded” stand apart in the source; their conditions may differ.

Tests used:
Format in all cases: physicochemical
[1] = Compression isotherm (surface pressure versus molecular area) of a Langmuir DPPC monolayer as pulmonary surfactant model
Protocol: The monolayer of native pulmonary surfactant was modeled by a Langmuir monolayer of DPPC. In this model, the DPPC molecules were spread using a spreading solvent onto the surface of water contained in a trough coated with Teflon®. After evaporation of the solvent, the DPPC molecules were progressively compressed using two mobile Teflon® barriers. The variation of the surface pressure was measured as a function of the compression by a pressure sensor such as a Wilhelmy blade.
Small quantities of perfluorooctyl bromide (PFOB) in liquid form (1-200 μl), contacted with the DPPC monolayer, result in the disappearance of the liquid expanded/liquid condensed phase transition of the phospholipid. […] FIG. 1 compares the compression isotherms of a DPPC monolayer alone and in contact with the fluorocarbon. In absence of fluorocarbon, one notes the presence of a plateau reflecting the coexistence of the expanded liquid state (fluid phase) and the condensed liquid state (crystalline islets). […] The DPPC monolayer is totally fluid.
Placing the Langmuir trough in a close space saturated with PFOB vapour, it is possible to study the interactions between the DPPC monolayer and the gaseous PFOB.

[2] = Grazing incidence X-ray diffraction of the DPPC monolayer; conditions: gaseous fluorocarbon, DPPC monolayer compressed at 40 mN·m^−1
Description: The two diffraction peaks seen in the absence of fluorocarbon are characteristics of the molecular organisation of DPPC in crystalline islets (▪).

[3] = Fluorescence microscopy of the DPPC monolayer contacted with gaseous fluorocarbon
Description: Fluorescence microscopy makes it possible to visualize the dissolution of crystalline islets of DPPC molecules when the monolayer is contacted with gaseous PFOB (FIG. 3A).

[4] = gaseous fluorocarbon, saturated atmosphere

Structure (SMILES)	plateau reflecting the coexistence of the expanded liquid state (fluid phase) and the condensed liquid state (crystalline islets) in the DPPC compression isotherm [1, 4]	diffraction peaks characteristic of DPPC crystalline islets / crystalline islets [2]	state of the DPPC monolayer ([1]; gaseous fluorocarbon)	state of the DPPC monolayer ([1]; liquid fluorocarbon)	plateau reflecting the coexistence of the expanded liquid state (fluid phase) and the condensed liquid state (crystalline islets) in the DPPC compression isotherm ([1]; liquid fluorocarbon (1-200 μl) contacted with the DPPC monolayer)	crystalline islets of DPPC seen by fluorescence microscopy, course with time ([3]; monolayer compressed at 10 mN·m^−1, 3, 5 and 7 min)	crystalline islets of DPPC seen by fluorescence microscopy ([3]; monolayer compressed at 10 mN·m^−1, after 3 minutes)	crystalline islets of DPPC seen by fluorescence microscopy ([3]; monolayer compressed at 10 mN·m^−1, after 5 minutes)	crystalline islets of DPPC seen by fluorescence microscopy ([3]; monolayer compressed at 10 mN·m^−1, after 7 minutes)
FC(F)(F)C(F)(F)C(F)(F)C(F)(F)C=CC(F)(F)C(F)(F)C(F)(F)C(F)(F)F [Example F-44E, bis(perfluorobutyl)ethene]	no longer seen; also recorded: disappears	these peaks have disappeared; also recorded: disappearance of the crystalline islets							
FC(F)(F)C(F)(F)C(F)(F)C(F)(F)C(F)(F)C(F)(F)C(F)(F)C(F)(F)Br [PFOB, 1-bromo-heptadecafluorooctane]	no longer seen; also recorded: disappears		totally fluid	totally fluid	no longer seen; also recorded: disappeared totally	progressively disappear	becomes small	almost completely re-spread	completely disappeared
